Laboratory results from patent US11053204B2, “Pyrimidinyloxy benzene derivatives as herbicides” (FMC Corporation, priority 2015, dated 2021).

Legend:
Format in all cases: in vivo
[1] = system: giant foxtail (Setaria faberii); assay: Test A postemergence, visual injury rating; details: 0 is no effect, 100 is complete control
Outline: (§1)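 Greenhouse pot test, loam/sand soil. Formulation: non-phytotoxic solvent mix plus surfactant. Pre: directed spray onto soil after sowing. Post: plants at 1–2 leaf, 2–10 cm. Rated visually vs untreated controls at ~10 d, 0 (no effect) to 100 (complete control).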

[2] = system: large (Lg) crabgrass (Digitaria sanguinalis); assay: Test A postemergence, visual injury rating; details: 1000 g ai/ha, 0 is no effect, 100 is complete control
Outline: as §1

[3] = system: wheat (Triticum aestivum); assay: Test A postemergence, visual injury rating; details: 0 is no effect, 100 is complete control
Outline: as §1

[4] = system: pigweed (Amaranthus retroflexus); assay: Test A postemergence, visual injury rating; details: 0 is no effect, 100 is complete control
Outline: as §1

[5] = system: barnyardgrass (Echinochloa crus-galli); assay: Test A postemergence, visual injury rating; details: 0 is no effect, 100 is complete control
Outline: as §1

corn (Zea mays) [6] = assay: Test A postemergence, visual injury rating; details: 0 is no effect, 100 is complete control
Outline: as §1

[7] = system: morningglory (Ipomoea spp.); assay: Test A postemergence, visual injury rating; details: 1000 g ai/ha, 0 is no effect, 100 is complete control
Outline: as §1

[8] = system: giant foxtail (Setaria faberii); assay: Test A preemergence, visual injury rating; details: for Foxtail, Giant plant response rating: 0 to 100 scale (0 no effect, 100 complete control)
Outline: as §1

[9] = system: large (Lg) crabgrass (Digitaria sanguinalis); assay: Test A preemergence, visual injury rating; details: 1000 g ai/ha, 0 to 100 scale (0 no effect, 100 complete control)
Outline: as §1

[10] = system: wheat (Triticum aestivum); assay: Test A preemergence, visual injury rating; details: 1000 g ai/ha, 0 to 100 scale (0 no effect, 100 complete control)
Outline: as §1

[11] = system: pigweed (Amaranthus retroflexus); assay: Test A preemergence, visual injury rating; details: for Pigweed plant response rating: 0 to 100 scale (0 no effect, 100 complete control)
Outline: as §1

[12] = system: barnyardgrass (Echinochloa crus-galli); assay: Test A preemergence, visual injury rating; details: for Barnyardgrass plant response rating: 0 to 100 scale (0 no effect, 100 complete control)
Outline: as §1

corn (Zea mays) [13] = assay: Test A preemergence, visual injury rating; details: 1000 g ai/ha, 0 to 100 scale (0 no effect, 100 complete control)
Outline: as §1

[14] = system: velvetleaf (Abutilon theophrasti); assay: Test A preemergence, visual injury rating; details: 1000 g ai/ha, 0 to 100 scale (0 no effect, 100 complete control)
Outline: as §1

[15] = system: morningglory (Ipomoea spp.); assay: Test A preemergence, visual injury rating; details: 1000 g ai/ha, 0 to 100 scale (0 no effect, 100 complete control)
Outline: as §1

[16] = system: blackgrass (Alopecurus myosuroides); assay: Test A postemergence, visual injury rating; details: 0 is no effect, 100 is complete control
Outline: as §1

kochia (Kochia scoparia) [17] = assay: Test A postemergence, visual injury rating; details: 0 is no effect, 100 is complete control
Outline: as §1

[18] = system: ragweed (common ragweed, Ambrosia elatior); assay: Test A postemergence, visual injury rating; details: 0 is no effect, 100 is complete control
Outline: as §1

[19] = system: Italian ryegrass (Lolium multiflorum); assay: Test A postemergence, visual injury rating; details: 0 is no effect, 100 is complete control
Outline: as §1

[20] = system: galium (catchweed bedstraw, Galium aparine); assay: Test A postemergence, visual injury rating; details: 0 is no effect, 100 is complete control
Outline: as §1

[21] = system: ducksalad (Heteranthera limosa); assay: Test B flooded paddy test, plant response rating; details: 250 g ai/ha; Flood; scale of 0 to 100 where 0 is no effect and 100 is complete control; 13 to 15 days
Outline: (§2)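 Test compounds are applied straight into paddy water held 3 cm above the soil surface, with that flood maintained for the whole test. After 13 to 15 days in the greenhouse, each species is scored visually relative to controls.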

rice (Oryza sativa) [22] = assay: Test B flooded paddy test, plant response rating; details: 250 g ai/ha; Flood; scale of 0 to 100 where 0 is no effect and 100 is complete control; 13 to 15 days
Outline: as §2

[23] = system: barnyardgrass (Echinochloa crus-galli); assay: Test B flooded paddy test, plant response rating; details: 250 g ai/ha; Flood; scale of 0 to 100 where 0 is no effect and 100 is complete control; 13 to 15 days
Outline: as §2

[24] = system: sedge, umbrella (small-flower umbrella sedge, Cyperus difformis); assay: Test B flooded paddy test, plant response rating; details: 250 g ai/ha; Flood; scale of 0 to 100 where 0 is no effect and 100 is complete control; 13 to 15 days
Outline: as §2

kochia (Kochia scoparia) [25] = assay: Test A preemergence, visual injury rating
Outline: as §1

[26] = system: ragweed (common ragweed, Ambrosia elatior); assay: Test A preemergence, visual injury rating
Outline: as §1

[27] = system: Italian ryegrass (Lolium multiflorum); assay: Test A preemergence, visual injury rating
Outline: as §1

[28] = system: ducksalad (Heteranthera limosa); assay: Test C flooded paddy test, plant response rating; details: flood, scale 0 to 100
Text: (§3) At the same time, plants selected from these crop and weed species and also chickweed (common chickweed, Stellaria media), buckwheat, wild (wild buckwheat, Polygonum convolvulus), wild mustard (Sinapis arvensis), field poppy (Papaver rhoeas), field violet (Viola arvensis), geranium, cutleaf (cutleaf geranium, Geranium dissectum), Canada thistle (Cirsium arvense), and speedwell (bird's-eye speedwell, Veronica persica), were planted in pots containing Sunshine Redi-Earth® planting medium comprising spaghnum peat moss, vermiculite, starter nutrients and dolomitic limestone and treated with postemergence applications of test chemicals formulated in the same manner. Plants ranged in height from 2 to 18 cm (1- to 4-leaf stage) for postemergence treatments. Treated plants and controls were maintained in a greenhouse for 13 to 15 d, after which time all species were compared to controls and visually evaluated. Plant response ratings, summarized in Table C, are based on a scale of 0 to 100 where 0 is no effect and 100 is complete control. A dash (-) response means no test result.
(§4) Plant species in the flooded paddy test consisted of rice (Oryza sativa), sedge, umbrella (small-flower umbrella sedge Cyperus difformis), ducksalad (Heteranthera limosa), and barnyardgrass (Echinochloa crus-galli) grown to the 2-leaf stage for testing. At time of treatment, test pots were flooded to 3 cm above the soil surface, treated by application of test compounds directly to the paddy water, and then maintained at that water depth for the duration of the test.

rice (Oryza sativa) [29] = assay: Test C flooded paddy test, plant response rating; details: flood, scale 0 to 100
Text: as §3, §4

[30] = system: barnyardgrass (Echinochloa crus-galli); assay: Test C flooded paddy test, plant response rating; details: flood, scale 0 to 100
Text: as §3, §4

[31] = system: sedge, umbrella (small-flower umbrella sedge Cyperus difformis); assay: Test C flooded paddy test, plant response rating; details: flood, scale 0 to 100
Text: as §3, §4

[32] = 31 g ai/ha, 0 to 100 scale, approximately 10 days
[33] = 31 g ai/ha, 0 to 100 scale, 0 no effect, 100 complete control
[34] = 125 g ai/ha, 0 to 100 scale (0 no effect, 100 complete control)

CC(=NOC(C)(C)C)c1ccccc1Oc1ncc(Cl)cn1 [Compound 59]
Foxtail, Giant plant response rating (0 to 100 scale) ([1]; 1000 g ai/ha): 10
Crabgrass, Large plant response rating (0 to 100 scale) [2]: 10
Wheat plant response rating (0 to 100 scale) ([3]; 1000 g ai/ha): 30
Pigweed plant response rating (0 to 100 scale) ([4]; 1000 g ai/ha): 30
Barnyardgrass plant response rating (0 to 100 scale) ([5]; 1000 g ai/ha): 0
Corn plant response rating (0 to 100 scale) (corn (Zea mays) [6]; 1000 g ai/ha): 20
Morningglory plant response rating (0 to 100 scale) [7]: 0
Foxtail, Giant plant response rating ([8]; 1000 g ai/ha): 30
Crabgrass, Large plant response rating [9]: 80
Wheat plant response rating [10]: 0
Pigweed plant response rating ([11]; 1000 g ai/ha): 30
Barnyardgrass plant response rating ([12]; 1000 g ai/ha): 20
Corn plant response rating (corn (Zea mays) [13]): 0
Velvetleaf plant response rating [14]: 0
Morningglory plant response rating [15]: 0

FC(F)(F)CCOCc1c(Br)cccc1Oc1ncc(Cl)cn1 [Compound 66]
Foxtail, Giant plant response rating [1, 32]: 30
Foxtail, Giant plant response rating (0 to 100 scale) ([1]; 125 g ai/ha): 100
Wheat plant response rating [3, 32]: 0
Wheat plant response rating (0 to 100 scale) ([3]; 125 g ai/ha): 30
Pigweed plant response rating [4, 32]: 40
Pigweed plant response rating (0 to 100 scale) ([4]; 125 g ai/ha): 100
Blackgrass plant response rating [16, 32]: 10
Blackgrass plant response rating (0 to 100 scale) ([16]; 125 g ai/ha): 100
Kochia plant response rating (kochia (Kochia scoparia) [17]; [32]): 20
Kochia plant response rating (0 to 100 scale) (kochia (Kochia scoparia) [17]; 125 g ai/ha): 50
Barnyardgrass plant response rating [5, 32]: 40
Barnyardgrass plant response rating (0 to 100 scale) ([5]; 125 g ai/ha): 100
Corn plant response rating (corn (Zea mays) [6]; [32]): 20
Corn plant response rating (0 to 100 scale) (corn (Zea mays) [6]; 125 g ai/ha): 70
Ragweed plant response rating [18, 32]: 0
Ragweed plant response rating (0 to 100 scale) ([18]; 125 g ai/ha): 20
Ryegrass, Italian plant response rating [19, 32]: 0
Ryegrass, Italian plant response rating (0 to 100 scale) ([19]; 125 g ai/ha): 50
Galium plant response rating [20, 32]: 30
Galium plant response rating (0 to 100 scale) ([20]; 125 g ai/ha): 100
Plant response rating, Ducksalad [21]: 100
Plant response rating, Rice (rice (Oryza sativa) [22]): 0
Plant response rating, Barnyardgrass [23]: 30
Plant response rating, Sedge, Umbrella [24]: 95
Plant response rating, Foxtail, Giant [8, 33]: 70
Foxtail, Giant plant response rating ([8]; 125 g ai/ha): 100
Plant response rating, Pigweed [11, 33]: 20
Pigweed plant response rating ([11]; 125 g ai/ha): 100
Plant response rating, Kochia (kochia (Kochia scoparia) [25]; [33]): 0
Kochia plant response rating (kochia (Kochia scoparia) [25]; [34]): 40
Plant response rating, Barnyardgrass [12, 33]: 90
Barnyardgrass plant response rating ([12]; 125 g ai/ha): 100
Plant response rating, Ragweed [26, 33]: 0
Ragweed plant response rating [26, 34]: 100
Plant response rating, Ryegrass, Italian [27, 33]: 0
Ryegrass, Italian plant response rating [27, 34]: 30
Ducksalad plant response rating ([28]; 31 g ai/ha): 40
Ducksalad plant response rating ([28]; 62 g ai/ha): 80
Ducksalad plant response rating ([28]; 125 g ai/ha): 85
Ducksalad plant response rating ([28]; 250 g ai/ha): 95
Rice plant response rating (rice (Oryza sativa) [29]; 31 g ai/ha): 0
Rice plant response rating (rice (Oryza sativa) [29]; 62 g ai/ha): 0
Rice plant response rating (rice (Oryza sativa) [29]; 125 g ai/ha): 0
Rice plant response rating (rice (Oryza sativa) [29]; 250 g ai/ha): 20
Barnyardgrass plant response rating ([30]; 31 g ai/ha): 0
Barnyardgrass plant response rating ([30]; 62 g ai/ha): 0
Barnyardgrass plant response rating ([30]; 125 g ai/ha): 25
Barnyardgrass plant response rating ([30]; 250 g ai/ha): 80
Sedge, Umbrella plant response rating ([31]; 31 g ai/ha): 40
Sedge, Umbrella plant response rating ([31]; 62 g ai/ha): 75
Sedge, Umbrella plant response rating ([31]; 125 g ai/ha): 85
Sedge, Umbrella plant response rating ([31]; 250 g ai/ha): 95
